# Assays:
# Assay type in all cases: in vivo
# corn (Zea mays) = test: Test A pre-/postemergence plant response
# How it was run: (§1)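 Seeds were planted in blended loam soil and sand, then treated preemergence by directed soil spray. At that time, emerged plants (one- to two-leaf, 2–10 cm) received postemergence applications of the same surfactant-containing formulation. Injury was assessed visually on a 0–100 scale after approximately 10 days.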
# [1] = system: giant foxtail (Setaria faberi); test: Test A pre-/postemergence plant response
# How it was run: as §1
# [2] = system: Italian ryegrass (Lolium multiflorum); test: Test B pre-/postemergence plant response; conditions: for Ryegrass, Italian plant response rating: 8 g ai/ha
# Excerpt: (§2) Seeds of plant species selected from blackgrass (Alopecurus myosuroides), downy bromegrass (Bromus tectorum), green foxtail (Setaria viridis), Italian ryegrass (Lolium multiflorum), wheat (Triticum aestivum), wild oat (Avena fatua), catchweed bedstraw (Galium aparine), bermudagrass (Cynodon dactylon), surinam grass (Brachiaria decumbens), cocklebur (Xanthium strumarium), corn (Zea mays), large crabgrass (Digitaria sanguinalis), woolly cupgrass (Eriochloa villosa), giant foxtail (Setaria faberii), goosegrass (Eleusine indica), johnsongrass (Sorghum halepense), kochia (Kochia scoparia), lambsquarters (Chenopodium album), morningglory (Ipomoea coccinea), eastern black (E.B.) nightshade (Solanum ptycanthum), yellow nutsedge (Cyperus esculentus), pigweed (Amaranthus retroflexus), common ragweed (Ambrosia elation), Russian thistle (Salsola iberica), soybean (Glycine max), common (oilseed) sunflower (Helianthus annuus), and velvetleaf (Abutilon theophrasti) were planted and treated preemergence with test chemicals formulated in a non-phytotoxic solvent mixture which included a surfactant.
# (§3) At the same time, plants selected from these crop and weed species and also winter barley (Hordeum vulgare), canarygrass (Phalaris minor), chickweed (Stellaria media) and windgrass (Apera spica-venti) were treated with postemergence applications of some of the test chemicals formulated in the same manner. Plants ranged in height from 2 to 18 cm (1- to 4-leaf stage) for postemergence treatments.
# (§4) Plant species in the flooded paddy test consisted of rice (Oryza sativa), umbrella sedge (Cyperus difformis), ducksalad (Heteranthera limosa) and barnyardgrass (Echinochloa crus-galli) grown to the 2-leaf stage for testing. At time of treatment, test pots were flooded to 3 cm above the soil surface, treated by application of test compounds directly to the paddy water, and then maintained at that water depth for the duration of the test. Treated plants and controls were maintained in a greenhouse for 13 to 15 days, after which time all species were compared to controls and visually evaluated. Plant response ratings, summarized in Table B, are based on a scale of 0 to 100 where 0 is no effect and 100 is complete control. A dash (-) response means no test result.
# [3] = system: bermudagrass (Cynodon dactylon); test: Test B pre-/postemergence plant response; conditions: for Bermudagrass plant response rating: 8 g ai/ha
# Excerpt: as §2, §3, §4
# [4] = system: common (oilseed) sunflower (Helianthus annuus); test: Test B pre-/postemergence plant response; conditions: Preemergence
# Excerpt: as §2, §3, §4
# [5] = system: eastern black (E.B.) nightshade (Solanum ptycanthum); test: Test B pre-/postemergence plant response; conditions: Preemergence
# Excerpt: as §2, §3, §4
# [6] = system: johnsongrass (Sorghum halepense); test: Test B pre-/postemergence plant response; conditions: for Johnsongrass plant response rating: 8 g ai/ha
# Excerpt: as §2, §3, §4
# kochia (Kochia scoparia) = test: Test B pre-/postemergence plant response; conditions: for Kochia plant response rating: 8 g ai/ha
# Excerpt: as §2, §3, §4
# soybean (Glycine max) = test: Test B pre-/postemergence plant response; conditions: for Soybean plant response rating: 8 g ai/ha
# Excerpt: as §2, §3, §4
# [7] = system: velvetleaf (Abutilon theophrasti); test: Test B pre-/postemergence plant response; conditions: for Velvetleaf plant response rating: 8 g ai/ha
# Excerpt: as §2, §3, §4
# [8] = system: wheat (Triticum aestivum); test: Test B pre-/postemergence plant response; conditions: for Wheat plant response rating: 8 g ai/ha
# Excerpt: as §2, §3, §4
# [9] = system: yellow nutsedge (Cyperus esculentus); test: Test B pre-/postemergence plant response; conditions: for Nutsedge, Yellow plant response rating: 8 g ai/ha
# Excerpt: as §2, §3, §4
# [10] = Postemergence, 31 g ai/ha, 0 to 100 scale, 0 no effect, 100 complete control
# [11] = Postemergence, 125 g ai/ha, 0 to 100 scale, 0 no effect, 100 complete control
# [12] = Preemergence, 31 g ai/ha, 0 to 100 scale, 0 is no effect, 100 is complete control
# [13] = Preemergence, 125 g ai/ha, 0 to 100 scale (0 no effect, 100 complete control)
# [14] = Postemergence, 16 g ai/ha, scale 0 to 100
# [15] = Postemergence, 31 g ai/ha, scale 0 to 100, 0 no effect, 100 complete control
# [16] = Postemergence, 62 g ai/ha, scale 0 to 100, 0 no effect, 100 complete control
# [17] = Preemergence, 16 g ai/ha, scale 0 to 100 (0 no effect, 100 complete control)
# [18] = Preemergence, 31 g ai/ha, 0 to 100 scale, 0 no effect, 100 complete control
# [19] = Preemergence, 62 g ai/ha, scale 0 to 100
# [20] = 16 g ai/ha, scale 0 to 100 (0 no effect, 100 complete control)
# [21] = 31 g ai/ha, 0 to 100 scale, 0 no effect, 100 complete control
smiles,measurement,setting,value
Cc1cc(-c2ccc(Cl)cc2)nn1-c1c(OC(=O)CC(C)C)cnn(C)c1=O [Compound 37],"Plant response rating, Corn",corn (Zea mays); [10],60
same,"Plant response rating, Corn",corn (Zea mays); [11],100
same,"Plant response rating, Corn",corn (Zea mays); [12],30
same,"Plant response rating, Corn",corn (Zea mays); [13],90
same,"Plant response rating, Foxtail, Giant",[1]; [10],80
same,"Plant response rating, Foxtail, Giant",[1]; [11],100
same,"Plant response rating, Foxtail, Giant",[1]; [12],100
same,"Plant response rating, Foxtail, Giant",[1]; [13],100
same,"Ryegrass, Italian plant response rating","[2]; postemergence, 0-100 scale",60
same,"Plant response rating, Ryegrass, Italian",[2]; [14],90
same,"Plant response rating, Ryegrass, Italian",[2]; [15],98
same,"Plant response rating, Ryegrass, Italian",[2]; [16],100
same,"Plant response rating, Ryegrass, Italian",[2]; [17],90
same,"Plant response rating, Ryegrass, Italian",[2]; [18],98
same,"Plant response rating, Ryegrass, Italian",[2]; [19],100
same,"Ryegrass, Italian plant response rating","[2]; Preemergence, scale 0 to 100",45
same,Bermudagrass plant response rating,"[3]; postemergence, 0-100 scale",80
same,"Plant response rating, Bermudagrass",[3]; [14],85
same,"Plant response rating, Bermudagrass",[3]; [15],100
same,"Plant response rating, Bermudagrass",[3]; [16],100
same,Bermudagrass plant response rating,"[3]; Preemergence, scale 0 to 100 (0 no effect, 100 complete control)",90
same,"Plant response rating, Bermudagrass",[3]; [17],90
same,"Plant response rating, Bermudagrass",[3]; [18],100
same,"Plant response rating, Bermudagrass",[3]; [19],100
same,"Plant response rating, Sunflower",[4]; [20],0
same,"Plant response rating, Sunflower",[4]; [21],0
same,"Plant response rating, Sunflower","[4]; 62 g ai/ha, scale 0 to 100",30
same,Sunflower plant response rating,"[4]; 8 g ai/ha, scale 0 to 100",0
same,"Plant response rating, Nightshade, E. B.",[5]; [20],0
same,"Plant response rating, Nightshade, E. B.",[5]; [21],0
same,"Plant response rating, Nightshade, E. B.","[5]; 62 g ai/ha, scale 0 to 100",0
same,"Nightshade, E. B. plant response rating","[5]; 8 g ai/ha, scale 0 to 100",0
same,Johnsongrass plant response rating,"[6]; postemergence, 0-100 scale",0
same,"Plant response rating, Johnsongrass",[6]; [14],55
same,"Plant response rating, Johnsongrass",[6]; [15],95
same,"Plant response rating, Johnsongrass",[6]; [16],100
same,"Plant response rating, Johnsongrass",[6]; [17],50
same,"Plant response rating, Johnsongrass",[6]; [18],80
same,"Plant response rating, Johnsongrass",[6]; [19],80
same,Johnsongrass plant response rating,"[6]; Preemergence, scale 0 to 100",50
same,Kochia plant response rating,"kochia (Kochia scoparia); postemergence, 0-100 scale",0
same,"Plant response rating, Kochia",kochia (Kochia scoparia); [14],0
same,"Plant response rating, Kochia",kochia (Kochia scoparia); [15],0
same,"Plant response rating, Kochia",kochia (Kochia scoparia); [16],0
same,"Plant response rating, Kochia",kochia (Kochia scoparia); [17],0
same,"Plant response rating, Kochia",kochia (Kochia scoparia); [18],0
same,"Plant response rating, Kochia",kochia (Kochia scoparia); [19],0
same,Kochia plant response rating,"kochia (Kochia scoparia); Preemergence, scale 0 to 100",0
same,Soybean plant response rating,"soybean (Glycine max); postemergence, 0-100 scale",0
same,"Plant response rating, Soybean",soybean (Glycine max); [14],0
same,"Plant response rating, Soybean",soybean (Glycine max); [16],0
same,"Plant response rating, Soybean",soybean (Glycine max); [17],0
same,"Plant response rating, Soybean",soybean (Glycine max); [18],0
same,"Plant response rating, Soybean",soybean (Glycine max); [19],0
same,Soybean plant response rating,"soybean (Glycine max); Preemergence, scale 0 to 100",0
same,Velvetleaf plant response rating,"[7]; postemergence, 0-100 scale",0
same,"Plant response rating, Velvetleaf",[7]; [14],0
same,"Plant response rating, Velvetleaf",[7]; [16],0
same,"Plant response rating, Velvetleaf",[7]; [17],0
same,"Plant response rating, Velvetleaf",[7]; [18],0
same,"Plant response rating, Velvetleaf",[7]; [19],0
same,Velvetleaf plant response rating,"[7]; Preemergence, scale 0 to 100",0
same,Wheat plant response rating,"[8]; postemergence, 0-100 scale",15
same,"Plant response rating, Wheat",[8]; [14],50
same,"Plant response rating, Wheat",[8]; [16],95
same,"Plant response rating, Wheat",[8]; [17],0
same,"Plant response rating, Wheat",[8]; [18],5
same,"Plant response rating, Wheat",[8]; [19],70
same,Wheat plant response rating,"[8]; Preemergence, scale 0 to 100",0
same,"Nutsedge, Yellow plant response rating","[9]; postemergence, 0-100 scale",0
same,"Plant response rating, Nutsedge, Yellow",[9]; [14],0
same,"Plant response rating, Nutsedge, Yellow",[9]; [15],0
same,"Plant response rating, Nutsedge, Yellow",[9]; [16],0
same,"Plant response rating, Nutsedge, Yellow",[9]; [17],0
same,"Plant response rating, Nutsedge, Yellow",[9]; [18],0
same,"Plant response rating, Nutsedge, Yellow",[9]; [19],0
same,"Nutsedge, Yellow plant response rating","[9]; Preemergence, scale 0 to 100",0
